pEC50, pIC50: −log10 of the molar value. Where two headings read alike, the source gives them in different places.
How the values were obtained:
in vitro = conditions: human, mt-4 cells
Procedure: (§1) Under in vitro conditions immortalized T-lymphocytes can be killed within few days by the cytopathic effect of HIV. […] For this purpose about 20,000 MT-4 cells (Harada et al. Science 229, 563 (1985)) Were infected with HIV (titer: 0.04 m.o.i.) and incubated in the presence or absence of varying concentrations of compounds according to formula I, with 10% fetal calf serum (FCS) in 200 μl RPMI medium. After 6 days of incubation the viable cells were counted that were excluded from trypan blue staining.

[1] = molecular target: T1, thymidine-phosphorylase from human spleen (Homo sapiens, UniProt P19971); assay: Phosphorolytic cleavage by thymidine-phosphorylase; type: in vitro ADME; conditions: for metabolised at 3 h, 1000 µM: 1 mM, within 3 hours, read-out: extent of cleavage by thymidine-phosphorylase
T1 construct: thymidine-phosphorylase from human spleen; from tissue; host or cells: human spleen
T1 sequence (P19971 11-482): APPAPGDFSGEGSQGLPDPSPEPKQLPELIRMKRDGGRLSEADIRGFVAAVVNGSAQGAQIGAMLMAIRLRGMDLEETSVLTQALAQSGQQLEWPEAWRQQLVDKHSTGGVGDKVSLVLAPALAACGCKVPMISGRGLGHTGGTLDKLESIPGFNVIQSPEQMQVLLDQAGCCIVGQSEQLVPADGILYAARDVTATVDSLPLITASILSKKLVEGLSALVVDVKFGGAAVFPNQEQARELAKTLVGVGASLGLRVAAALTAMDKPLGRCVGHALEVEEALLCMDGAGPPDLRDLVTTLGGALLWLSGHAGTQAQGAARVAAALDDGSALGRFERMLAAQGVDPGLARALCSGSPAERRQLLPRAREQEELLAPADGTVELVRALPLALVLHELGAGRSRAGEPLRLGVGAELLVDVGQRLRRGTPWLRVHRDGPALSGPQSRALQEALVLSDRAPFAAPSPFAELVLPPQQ
From the text: Therefore FTdR, FddBrUrd and FddFUrd were investigated for their ability to be cleaved by thymidine-phosphorylase from human spleen.

HIV = assay: Inhibition of the cytopathic effect of HIV on MT-4 cells; type: cell-based; conditions: MT-4 cells, 6 days of incubation; for pEC50: Human immunodeficiency virus 1, MT4, 144 h, read-out: 50% antiviral dose (ED50)
Procedure: as §1

[2] = molecular target: T2, HIV-associated reverse transcriptase (HIV-RT) (Human immunodeficiency virus type 1 group M subtype B, UniProt P04585); assay: Inhibition of HIV-associated reverse transcriptase (polymerization of artificial templates); type: biochemical; parameters: efficacy against HIV-associated reverse transcriptase: dose or concentration left out as unconfirmed; conditions: for pIC50: read-out: ID50 HIV-RT
T2 construct: HIV-associated reverse transcriptase (HIV-RT)
From the text: At first the triphosphates of some compounds according to formula I were investigated for their ability to inhibit the polymerization of artificial templates (such as polyAoligodT and polyColigodG) catalyzed by HIV-associated reverse transcriptase (HIV-RT) according to the method described by A. D. Hoffman et al., Virology 147, 326, 1985. […] FdTTP, FdUTP and FdGTP are among the strongest inhibitors found so far for HIV-RT. In comparison the ID50 for 3'-azidothymidinetriphosphate was estimated under our conditions to be about […].

[3] = molecular target: T3, cellular DNA polymerase β (Bos taurus, UniProt Q27958); assay: Effect on cellular DNA polymerase β; type: biochemical; conditions: enzyme purified from calf thymus; read-out: ID50 cellular polymerase β
T3 construct: purified from calf thymus; from tissue; host or cells: calf thymus
From the text: (§2) The strong inhibiting effect of 3'-fluoro-substituted deoxynucleotides against HIV-reverse transcriptase can be utilized therapeutically only if the cellular DNA polymerases, especially the DNA polymerase α which is required for the replication of the cellular DNA, remain substantially unaffected. […] The ID50 values for the DNA polymerase β responsible for cellular DNA repair vary between 1,8-15 μm. Both enzymes cellular DNA polymerase α and β were purified from calf thymus and tested according to the method of E. Matthes et al., Biomed. Biochim. Acta 44. K63 (1985).

[4] = molecular target: T4, cellular DNA polymerase α (Bos taurus, UniProt A0AAA9TD94); assay: Effect on cellular DNA polymerase α; type: biochemical; conditions: enzyme purified from calf thymus; read-out: ID50 cellular polymerase α
T4 construct: purified from calf thymus; from tissue; host or cells: calf thymus
T4 sequence (A0AAA9TD94 1-1441): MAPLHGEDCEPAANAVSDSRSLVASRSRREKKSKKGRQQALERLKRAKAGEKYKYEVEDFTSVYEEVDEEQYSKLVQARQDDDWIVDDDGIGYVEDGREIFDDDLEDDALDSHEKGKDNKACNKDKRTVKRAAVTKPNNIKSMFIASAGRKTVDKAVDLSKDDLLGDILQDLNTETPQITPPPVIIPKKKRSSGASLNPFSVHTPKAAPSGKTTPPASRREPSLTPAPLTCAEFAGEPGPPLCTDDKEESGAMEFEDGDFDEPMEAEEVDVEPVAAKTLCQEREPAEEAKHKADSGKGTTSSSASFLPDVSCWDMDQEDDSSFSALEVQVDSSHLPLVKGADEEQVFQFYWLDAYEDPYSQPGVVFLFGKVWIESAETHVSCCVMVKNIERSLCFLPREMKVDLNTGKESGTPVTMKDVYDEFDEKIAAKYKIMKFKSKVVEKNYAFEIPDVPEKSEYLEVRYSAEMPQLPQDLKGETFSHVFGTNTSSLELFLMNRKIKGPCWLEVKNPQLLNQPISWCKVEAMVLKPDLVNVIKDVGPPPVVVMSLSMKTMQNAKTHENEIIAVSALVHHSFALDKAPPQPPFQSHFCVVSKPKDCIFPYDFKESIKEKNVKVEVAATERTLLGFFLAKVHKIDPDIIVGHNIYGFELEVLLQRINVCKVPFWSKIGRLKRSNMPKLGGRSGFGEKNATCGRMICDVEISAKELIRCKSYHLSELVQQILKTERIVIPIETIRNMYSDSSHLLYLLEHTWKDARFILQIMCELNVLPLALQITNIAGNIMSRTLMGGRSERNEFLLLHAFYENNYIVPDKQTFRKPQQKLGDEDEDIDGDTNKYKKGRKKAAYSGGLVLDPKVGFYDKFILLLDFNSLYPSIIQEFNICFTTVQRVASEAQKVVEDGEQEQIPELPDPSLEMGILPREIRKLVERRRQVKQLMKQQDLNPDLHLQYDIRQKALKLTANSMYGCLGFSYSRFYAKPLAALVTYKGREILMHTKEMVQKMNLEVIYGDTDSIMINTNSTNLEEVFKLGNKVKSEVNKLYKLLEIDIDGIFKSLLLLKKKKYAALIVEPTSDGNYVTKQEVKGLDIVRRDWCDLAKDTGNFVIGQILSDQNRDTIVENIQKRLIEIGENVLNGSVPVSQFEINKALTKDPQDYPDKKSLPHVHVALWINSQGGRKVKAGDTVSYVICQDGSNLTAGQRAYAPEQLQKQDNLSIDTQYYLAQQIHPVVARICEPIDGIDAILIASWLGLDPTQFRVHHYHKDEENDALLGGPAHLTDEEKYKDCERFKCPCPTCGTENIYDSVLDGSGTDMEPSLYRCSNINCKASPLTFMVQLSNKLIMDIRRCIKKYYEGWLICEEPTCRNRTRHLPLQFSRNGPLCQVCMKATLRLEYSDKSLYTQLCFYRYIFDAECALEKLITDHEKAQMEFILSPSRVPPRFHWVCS
From the text: as §2

[5] = concentration required for 50% inhibition

O=c1[nH]c(=O)n([C@H]2C[C@H](F)[C@@H](CO)O2)cc1F [FddFUrd, 2'-3'-dideoxy-3'-fluoro-5-fluorouridine]
CC50 at 144 h (in vitro): > 200 µM | metabolised at 3 h, 1000 µM [1]: 3 to 8% | 50% antiviral dose (ED50) (HIV): not detectable

Nc1ncnc2c1ncn2[C@H]1C[C@H](F)[C@@H](CO)O1 [FddAdo, 2'-3'-dideoxy-3'-fluoroadenosine]
CC50 at 144 h (in vitro): 75 µM | pEC50 (HIV): < 4.00

Nc1ccn([C@@H]2O[C@H](CO)[C@@H](F)[C@@H]2O)c(=O)n1 [FaraC, 3'-deoxy-3'-fluoroarabinosylcytosine]
CC50 at 144 h (in vitro): > 100 µM | pEC50 (HIV): < 4.00

Nc1nc2c(ncn2[C@H]2C[C@H](F)[C@@H](CO)O2)c(=O)[nH]1 [FddGuo, 2'-3'-dideoxy-3'-fluoroguanosine]
CC50 at 144 h (in vitro): 250 µM | pEC50 (HIV): 5.30

Cc1cn([C@H]2C[C@H](Cl)[C@@H](COP(=O)(O)OP(=O)(O)OP(=O)(O)O)O2)c(=O)[nH]c1=O [3'-chloro-2',3'-dideoxythymidine triphosphate, reference compound]
efficacy against HIV-associated reverse transcriptase [2]: completely ineffective

O=c1ccn([C@@H]2O[C@H](CO)[C@@H](F)[C@@H]2O)c(=O)[nH]1 [FaraU, 3'-deoxy-3'-fluoroarabinosyluracil]
CC50 at 144 h (in vitro): > 500 µM | pEC50 (HIV): < 3.30

CCc1cn([C@H]2C[C@H](F)[C@@H](COP(=O)(O)OP(=O)(O)OP(=O)(O)O)O2)c(=O)[nH]c1=O [Compound F5EtdUTP, 2'-3'-dideoxy-3'-fluoro-5-ethyluridine-5'-triphphosphate]
pIC50 [2, 5]: 5.12 | pIC50 [3]: 5.40 | pIC50 [4]: 5.00

N#Cc1cn([C@H]2C[C@H](F)[C@@H](CO)O2)c(=O)[nH]c1=O [FddCNUrd, 2'-3'-dideoxy-3'-fluoro-5-cyanouridine]
CC50 at 144 h (in vitro): > 500 µM | 50% antiviral dose (ED50) (HIV): not detectable

O=c1[nH]c(=O)n([C@H]2C[C@H](F)[C@@H](COP(=O)(O)OP(=O)(O)OP(=O)(O)O)O2)cc1F [Compound F5FdUTP, 2'-3'-dideoxy-3'-fluoro-5-fluorouridine-5'-triphosphate]
pIC50 [2, 5]: 6.35 | pIC50 [3]: 4.82 | pIC50 [4]: < 3.70

Nc1nc(N)c2ncn([C@H]3C[C@H](F)[C@@H](CO)O3)c2n1 [FddDAPR, 2'-3'-dideoxy-3'-fluoro-2,6-diaminopurineriboside]
CC50 at 144 h (in vitro): 480 µM | pEC50 (HIV): 5.22

O=c1ccn([C@H]2C[C@H](F)[C@@H](COP(=O)(O)OP(=O)(O)OP(=O)(O)O)O2)c(=O)[nH]1 [FdUTP, 2'-3'-dideoxy-3'-fluorouridine-5'-triphosphate]
pIC50 [2, 5]: 7.15 | pIC50 [3]: 5.52 | pIC50 [4]: < 3.70

Cc1cn([C@H]2C[C@H](F)[C@@H](CO)O2)c(=O)nc1N [FddMCyt, 2'-3'-dideoxy-3'-fluoromethylcytidine]
CC50 at 144 h (in vitro): 125 µM | pEC50 (HIV): 3.90

Cc1cn([C@H]2C[C@H](N=[N+]=[N-])[C@@H](CO[P@](=O)(O)O[P@](=O)(O)OP(=O)(O)O)O2)c(=O)[nH]c1=O [3'-azidothymidinetriphosphate, reference compound]
pIC50 ([2]; estimated under our conditions): ~4.30

Cc1cn([C@H]2C[C@H](O)[C@@H](CO)O2)c(=O)[nH]c1=O [thymidine, reference compound]
metabolised at 2 h [1]: 90%

CCc1cn([C@H]2C[C@H](F)[C@@H](CO)O2)c(=O)[nH]c1=O [FddEtUrd, 2'-3'-dideoxy-3'-fluoro-5-ethyluridine]
CC50 at 144 h (in vitro): > 500 µM | pEC50 (HIV): < 3.30

Nc1ccn([C@H]2C[C@H](F)[C@@H](CO)O2)c(=O)n1 [FddCyt, 2'-3'-dideoxy-3'-fluorocytidine]
CC50 at 144 h (in vitro): 62 µM | pEC50 (HIV): 4.60

O=c1[nH]c(=O)n([C@H]2C[C@H](F)[C@@H](CO)O2)cc1Br [FddBrUrd, 2'-3'-dideoxy-3'-fluoro-5-bromouridine]
CC50 at 144 h (in vitro): 190 µM | metabolised at 3 h, 1000 µM [1]: 3 to 8% | pEC50 (HIV): 5.30

O=c1[nH]c(=O)n([C@@H]2O[C@H](CO)[C@@H](F)[C@@H]2O)cc1Br [FaraBrU, 3'-deoxy-3'-fluoroarabinosyl-5-bromouracil]
CC50 at 144 h (in vitro): > 100 µM | pEC50 (HIV): < 4.00

Nc1nc2c(ncn2[C@H]2C[C@H](F)[C@@H](COP(=O)(O)OP(=O)(O)OP(=O)(O)O)O2)c(=O)[nH]1 [FdGTP, 2'-3'-dideoxy-3'-fluoroguanosine-5'-triphosphate]
pIC50 [2, 5]: 7.30 | pIC50 [3]: 5.74 | pIC50 [4]: < 3.70

O=c1[nH]c(=O)n([C@H]2C[C@H](F)[C@@H](CO)O2)cc1CO [FddHMUrd, 2'-3'-dideoxy-3'-fluoro-5-hydroxymethyluridine]
CC50 at 144 h (in vitro): > 500 µM | pEC50 (HIV): < 3.30
